Measured values from patent US20240158390A1, “OTHER HETEROAROMATIC COMPOUNDS HAVING ACTIVITY AGAINST RSV” (Janssen Sciences Ireland Unlimited Company, priority 2019, published 2024).

What was measured:
[1] = system: rgRSV224 virus; experiment: Antiviral activity: rgRSV224 (GFP) replication in HeLa cells; format: cell-based; settings: human respiratory syncytial virus, 72 h, read-out: RSV HELA EC50 (μM)
Protocol: (§1) Black 384-well clear-bottom microtiter plates (Corning, Amsterdam, The Netherlands) were filled via acoustic drop ejection using the echo liquid handler (Labcyte, Sunnyvale, California). 200 nL of compound stock solutions (100% DMSO) were transferred to the assay plates. 9 serial 4-fold dilutions of compound were made, creating per quadrant the same compound concentration. The assay was initiated by adding 10 μL of culture medium to each well (RPMI medium without phenol red, 10% FBS-heat inactivated, 0.04% gentamycin (50 mg/mL). All addition steps are done by using a multidrop dispenser (Thermo Scientific, Erembodegem, Belgium). Next, rgRSV224 virus (MOI=1) diluted in culture medium was added to the plates. rgRSV224 virus is an engineered virus that includes an additional GFP gene (Hallak LK, Spillmann D, Collins PL, Peeples ME. Glycosaminoglycan sulfation requirements for respiratory syncytial virus infection; Journal of virology (2000), 74(22), 10508-13) and was in-licensed from the NIH (Bethesda, MD, USA). Finally, 20 μL of a HeLa cell suspension (3,000 cells/well) were plated. Medium, virus- and mock-infected controls were included in each test. The wells contain 0.05% DMSO per volume. Cells were incubated at 37° C. in a 5% CO2 atmosphere. Three days post-virus exposure, viral replication was quantified by measuring GFP expression in the cells by an in house developed MSM laser microscope (Tibotec, Beerse, Belgium). The EC50 was defined as the 50% inhibitory concentration for GFP expression. In parallel, compounds were incubated for three days in a set of white 384-well microtiter plates (Corning) and the cytotoxicity of compounds in HeLa cells was determined by measuring the ATP content of the cells using the ATPlite kit (Perkin Elmer, Zaventem, Belgium) according to the manufacturer's instructions. The CC50 was defined as the 50% concentration for cytotoxicity.

[2] = in vitro; format: cell-based; settings: human
Protocol: as §1

Structure (SMILES) | EC50 [1] [µM] | CC50 at 3 days [2] [µM]
C[C@@H]1c2ccccc2CCN1C(=O)c1cc(C2CC2)c2nc(-c3ccc(NC(=O)N4CC[C@@H](O)C4)cc3F)n(C)c2c1 [Compound 18, (3R)-N-(4-{4-Cyclopropyl-1-methyl-6-[(1R)-1-methyl-1,2,3,4-tetrahydroisoquinoline-2-carbonyl]-1H-1,3-benzodiazol-2-yl}-3-fluorophenyl)-3-hydroxypyrrolidine-1-carboxamide] | 0.14 | 51.6
C[C@@H]1c2ccccc2CCN1C(=O)c1cc(C2CC2)c2nc(-c3ccc(C4C[C@@H]4C(=O)O)cc3F)n(C)c2c1 (relative stereo) [Compound 14, Cis-2-(4-{4-cyclopropyl-1-methyl-6-[(1R)-1-methyl-1,2,3,4-tetrahydroisoquinoline-2-carbonyl]-1H-1,3-benzodiazol-2-yl}-3-fluorophenyl)cyclopropane-1-carboxylic acid] | 9.05 | > 100
C[C@@H]1c2ccccc2CCN1C(=O)c1cc(C2CC2)c2nn(-c3ccc(NC(=O)N4CC[C@@H](O)C4)cc3F)cc2n1 [Compound 7, (R)-N-(4-(7-cyclopropyl-5-((R)-1-methyl-1,2,3,4-tetrahydroisoquinoline-2-carbonyl)-2H-pyrazolo[4,3-b]pyridin-2-yl)-3-fluorophenyl)-3-hydroxypyrrolidine-1-carboxamide] | 0.05 | 47.6
C[C@@H]1c2ccccc2CCN1C(=O)c1cc(C2CC2)c2sc(-c3ccc(N4C[C@H](O)[C@@H](O)C4)cc3F)nc2n1 [Compound 5, (7-cyclopropyl-2-(4-((3 S,4S)-3,4-dihydroxypyrrolidin-1-yl)-2-fluorophenyl)thiazolo[4,5-b]pyridin-5-yl)((R)-1-methyl-3,4-dihydroisoquinolin-2(1H)-yl)methanone] | 0.73 | 33.3
C[C@@H]1c2ccccc2CCN1C(=O)c1cc(C2CC2)c2cc(-c3ccc([C@H]4C[C@@H]4C(=O)O)cc3F)n(C)c2c1 [Compound 9, (1 S,2S)-2-(4-(4-cyclopropyl-1-methyl-6-((R)-1-methyl-1,2,3,4-tetrahydroisoquinoline-2-carbonyl)-1H-indol-2-yl)-3-fluorophenyl)cyclopropane-1-carboxylic acid] | 2.31 | 31.4
C[C@@H]1c2ccccc2CCN1C(=O)c1cc(C2CC2)c2nc(-c3ccc(N4CC[C@H](C(=O)O)C4)cc3F)oc2c1 [Compound 21, (3S)-1-(4-{4-Cyclopropyl-6-[(1R)-1-methyl-1,2,3,4-tetrahydroisoquinoline-2-carbonyl]-1,3-benzoxazol-2-yl}-3-fluorophenyl)pyrrolidine-3-carboxylic acid] | 0.01 | 51.5
CCc1cc(C(=O)N2CCc3ccccc3[C@H]2C)nc2cc(-c3ccc(NC(=O)N4CC[C@@H](O)C4)cc3F)oc12 [Compound 6, (R)-N-(4-(7-ethyl-5-((R)-1-methyl-1,2,3,4-tetrahydroisoquinoline-2-carbonyl)furo[3,2-b]pyridin-2-yl)-3-fluorophenyl)-3-hydroxypyrrolidine-1-carboxamide] | 0.07 | > 100
C[C@@H]1c2ccccc2CCN1C(=O)c1cc(C2CC2)c2nc(-c3ccc(N4C[C@H](O)[C@@H](O)C4)cc3F)oc2n1 [Compound 2, (7-cyclopropyl-2-(4-((3 S,4S)-3,4-dihydroxypyrrolidin-1-yl)-2-fluorophenyl)oxazolo[5,4-b]pyridin-5-yl)((R)-1-methyl-3,4-dihydroisoquinolin-2(1H)-yl)methanone] | 0.02 | 26
C[C@@H]1c2ccccc2CCN1C(=O)c1cc(C2CC2)c2nn(-c3ccc(NC(=O)N4CC[C@H](O)C4)cc3F)cc2c1 [Compound 20, (3S)-N-(4-{7-Cyclopropyl-5-[(1R)-1-methyl-1,2,3,4-tetrahydroisoquinoline-2-carbonyl]-2H-indazol-2-yl}-3-fluorophenyl)-3-hydroxypyrrolidine-1-carboxamide] | 0.06 | 54.4
C[C@@H]1c2ccccc2CCN1C(=O)c1cc(C2CC2)c2nc(-c3ccc(C4CC4C(=O)O)cc3F)n(C)c2n1 (stereo in doubt) [Compound 11, Trans 2-(4-{7-Cyclopropyl-3-methyl-5-[(1R)-1-methyl-1,2,3,4-tetrahydroisoquinoline-2-carbonyl]-3H-imidazo[4,5-b]pyridin-2-yl}-3-fluorophenyl)cyclopropane-1-carboxylic acid] | 0.52 | 76.8
C[C@@H]1c2ccccc2CCN1C(=O)c1cc(C2CC2)c2nc(-c3ccc(N4CC[C@H](C(=O)O)C4)cc3F)n(C)c2c1 [Compound 16, (3S)-1-(4-{4-Cyclopropyl-1-methyl-6-[(1R)-1-methyl-1,2,3,4-tetrahydroisoquinoline-2-carbonyl]-1H-1,3-benzodiazol-2-yl}-3-fluorophenyl)pyrrolidine-3-carboxylic acid] | 0.61 | 65.3
C[C@@H]1c2ccccc2CCN1C(=O)c1cc(C2CC2)c2nc(-c3ccc(N4CC[C@H](C(=O)O)C4)cc3F)n(C)c2n1 [Compound 12, Methyl (3S)-1-(4-{7-cyclopropyl-3-methyl-5-[(1R)-1-methyl-1,2,3,4-tetrahydroisoquinoline-2-carbonyl]-3H-imidazo[4,5-b]pyridin-2-yl}-3-fluorophenyl)pyrrolidine-3-carboxylic acid] | 0.43 | 63
C[C@@H]1c2ccccc2CCN1C(=O)c1cc(C2CC2)c2nc(-c3ccc(N4CC[C@H](C(N)=O)C4)cc3F)oc2c1 [Compound 22, (3S)-1-(4-{4-Cyclopropyl-6-[(1R)-1-methyl-1,2,3,4-tetrahydroisoquinoline-2-carbonyl]-1,3-benzoxazol-2-yl}-3-fluorophenyl)pyrrolidine-3-carboxamide] | 0.01 | 54.8
C[C@@H]1c2ccccc2CCN1C(=O)c1cc(C2CC2)c2cc(-c3ccc([C@H]4C[C@@H]4C(=O)O)cc3F)[nH]c2c1 [Compound 8, (1 S,2S)-2-(4-(4-cyclopropyl-6-((R)-1-methyl-1,2,3,4-tetrahydroisoquinoline-2-carbonyl)-1H-indol-2-yl)-3-fluorophenyl)cyclopropane-1-carboxylic acid] | 2.04 | 20.9
CCc1cc(C(=O)N2CCc3ccccc3[C@H]2C)cc2cc(-c3ccc(N4C[C@H](O)[C@@H](O)C4)cc3F)oc12 [Compound 3, (2-(4-((3S,4S)-3,4-dihydroxypyrrolidin-1-yl)-2-fluorophenyl)-7-ethylbenzofuran-5-yl)((R)-1-methyl-3,4-dihydroisoquinolin-2 (1H)-yl)methanone] | 0.25 | 24.2
CCc1cc(C(=O)N2CCc3ccccc3[C@H]2C)nc2oc(-c3ccc(NC(=O)N4CC[C@@H](O)C4)cc3F)nc12 [Compound 1, (R)-N-(4-(7-ethyl-5-((R)-1-methyl-1,2,3,4-tetrahydroisoquinoline-2-carbonyl)oxazolo[5,4-b]pyridin-2-yl)-3-fluorophenyl)-3-hydroxypyrrolidine-1-carboxamide] | 0.01 | > 25
